Measurements: patent US7939091B2, “Biorational repellents obtained from terpenoids for use against arthropods” (Iowa State University Research Foundation, Inc., priority 1999, dated 2011)

Key:
[1] = test system: German cockroach, Blattella germanica; experiment: Choice-test arena bioassay (contact irritancy), German cockroach, Example 6; assay type: in vivo; conditions: 300-second period
Procedure: (§1) A choice-test arena was used to assess irritancy of test solutions to two common household insect pests, the German cockroach (Blattella germanica) and the house fly (Musca domestica). Catnip essential oil obtained by steam distillation of catnip obtained from the same source as described in the above examples, and the two major components of its essential oil, Z,E-nepetalactone and E,Z-nepetalactone (isolated from the essential oil by preparative TLC), were evaluated for behavioral effects of contact irritancy to the German cockroach. The TLC was performed as described in McElvain, S. M. et al., J. Am. Chem. Soc., 1941, 63, 1558-1563. Catnip essential oil and its major constituent Z,E-nepetalactone were tested against the house fly. N,N-diethyl-m-toluamide (DEET) (Aldrich, St. Louis, Mo.) served as a positive control for the choice-test arena assay and as a point of comparison for measuring insect behavioral effects that result from current commercial insect repellents. Test solutions ranging from 10% to 0.1% (vol/vol) active ingredient (a.i.) were made up in acetone and then delivered on to a filter paper for solvent evaporation. […] Choice-test are for German cockroaches and house flies were constructed from plastic Petri dishes. One-half of a 12.5-cm dia. filter paper was treated with 1 ml test solution, and the other was treated with 1 ml of only solvent (control). Both halves of the filter paper were placed in the choice-test arena. Position of the treated filter paper was randomized using a random-number table.
(§2) Individual German cockroaches or house flies were placed in each choice-test arena through a centered hole in the lid of the Petri dish and evaluated for a 300-second period. The amount of time the insect spent on the treated and untreated filter papers were recorded and used to calculate a percentage repellency value: Percentage Repellency=((Time on Untreated-Time on Treated)/300)×100
(§3) Ten replicates of each treatment solution were tested for both German cockroaches and house flies. Details of this assay design and some results have previously been described.

[2] = test system: antennectomized male German cockroaches; experiment: Choice test arena behavioral assay of antennectomized male cockroaches; assay type: in vivo, Blattella germanica; conditions: Annectomized male cockroaches
Procedure: Testing Procedure. Male cockroaches were antennectomized by using a razor blade to remove the antennae as close to the head as possible. The cockroaches were allowed to recover from the procedure for 24 hours before being exposed to the test compounds in the bioassay described in Example 1. Results.

[3] = test system: German cockroach (Blattella germanica); experiment: Choice test arena repellency bioassay, adult male German cockroach, 300-second test; assay type: in vivo; conditions: for Mean Treated / Mean Untreated: 300-second test; for % repellency: (untreated − treated/300)*100
Procedure: Test Procedure. Repellency bioassays were conducted to assess the repellent properties of compositions containing catnip steam distillate (nepetalactone), Z,E-nepetalactone, E,Z-nepetalactone and DEET against cockroaches. Certified acetone and certified hexane were also tested in order to evaluate solvent effects. (DEET was dissolved in acetone, because DEET is insoluble in hexane. The tested compounds were dissolved in hexane because hexane was the solvent used to extract these compounds from the distillate). One Whatman 125-mm round filter paper was cut in half. One side was treated with one (1) ml of the test compound and the other side was treated with one (1) ml of solvent. The papers were allowed to dry in a fume hood for approximately two (2) minutes before being placed in a 150-mm Petri dish arena. The relative position of the treated side (i.e., to the right or left) of the dish was randomized using a random number table. […] The hole was stopped using a small piece of tape to prevent the insect from escaping. One adult male German cockroach (Blattella germanica) was selected from the colony and dropped into the pre-formed hole in the Petri dish lid. […] Ten (10) replications were performed for each test compound. Results. Using mean values and their related Standard Error of the Mean values (SEM), repellency of the selected samples was determined as shown in Table 2. Significance due to concentration was determined using ANOVA. […] Comparisons between test compounds were made using a two-tailed paired t-test (“paired t-test”) which indicates “differences” as is known in the art and shown in Table 4 (as compared with a “one-tailed” test, which indicates “greater or less than”). Testing Procedure. The same procedure described in Example 1 was used.

[4] = test system: house fly, Musca domestica; experiment: Choice-test arena bioassay (contact irritancy), house fly; assay type: in vivo; conditions: 300-second period
Procedure: as §1, §2, §3

[5] = test system: yellow fever mosquitoes, Aedes aegypti; experiment: Static-air repellency chamber, spatial and contact repellency, adult female yellow fever mosquitoes; assay type: in vivo; conditions: application rate 78.6 μg/cm^2
Procedure: Test Equipment. In this testing, a static air repellency chamber was used. The apparatus consisted of a 9×60-cm section of glass tubing with a 2-cm hole drilled at the midpoint along the length for central introduction of the insects. All of the testing was conducted in an environmental chamber at ambient temperatures.
Test Methods. The data for spatial repellency was collected at 15 minutes after the introduction of female yellow fever mosquitoes into a static air repellency chamber. Data for the contact repellency was collected after three hours. The concentrations used in the tests are 1% solution (1 ml of it on a 9-cm diameter filter paper). One (1) ml of a 1% (wt/vol) solution of repellent substance containing hexane as a carrier was pipetted onto a 9-cm diameter filter paper results in a concentration of 157 μg/cm^2. The solution contained the desired mass of compound to be tested added to the desired volume of hexane, e.g., for a 1% solution of catnip essential oil, […] was added to 100 ml of hexane.
One milliliter of the solution was applied to one half of a 9-cm diameter round filter paper with an area of 63.6 cm^2 and then allowed to dry before testing. […] Treated filter papers were placed inside the lids of 9-cm glass petri dishes, and placed over the ends of the glass tube. The position of the treated side, to the right or to the left, was selected by using a random-number table. Approximately fifteen unmated adult female mosquitoes were anaesthetized with CO2 and then introduced to the 9×60-cm glass cylinder through the centered 2-cm hole. Timing began 2 minutes after mosquito introduction, and mosquito distribution inside the static-air choice-test apparatus was observed over a 15-minute period for each treatment to determine spatial repellency. Basically the number of mosquitoes in the non-treated half were considered to be repelled and were counted. Percent repellency was considered to be: (Number of Individuals on Untreated Half−Number of Individuals on Treated Half)/15)×100. Contact repellency was defined in this assay as 100% avoidance of the treated filter paper-after three hours. The experimental design was a completely randomized design using six replications of each treatment.
All test methods were the same as described in Example 7, except spatial repellency over a longer period.
Test Methods. […] Also only three replications were used instead of six.

[6] = 0.1% test solution vs solvent-treated half, male
[7] = 0.5% test solution vs solvent-treated half, male
[8] = dose 16 μg/cm^2, male B. germanica, in 300 seconds
[9] = dose 80 μg/cm^2, male B. germanica, in 300 seconds
[10] = 1% test solution vs solvent-treated half, male
[11] = 5% test solution vs solvent-treated half, male

In the case of `CC1=COC(=O)C2[C@@H]1CC[C@@H]2C` (stereo partly drawn) [E,Z-Nepetalactone, trans-cis nepetalactone], the “Percentage Repellency ± SEM” value ([1]; application rate 16 μg/cm^2) is reported as 46.4 ± 11.0b %, the “Percentage Repellency ± SEM” value ([1]; application rate 80 μg/cm^2) is reported as 79.4 ± 3.5c % and the “Mean seconds on treated side ± SEM” value ([2]; 80 μg/cm^2) is reported as 153 ± 15.2 s. The “Mean seconds on untreated side” value ([2]; 80 μg/cm^2) was 149 ± 15.3 s, the “Mean Treated” value [3, 6] was 76.7 s and the “Mean Untreated” value [3, 6] was 216 s. The “times less time on the treated side as compared with the untreated side” value ([3]; 0.5%) was ~8 times, the “Mean Treated” value [3, 7] was 31.7 s and the “Mean Untreated” value [3, 7] was 270 s. The “Mean seconds on treated side ± SEM” value ([3]; Non-antennectomized male cockroaches, 80 μg/cm^2) was 31.7 ± 5.2 s, the “% repellency” value ([3]; dose 16 μg/cm^2) was 46% and the “Mean seconds on treated side ± SEM” value [3, 8] was 76.7 ± 13.7 b seconds. The “% repellency” value ([3]; dose 80 μg/cm^2) was 79% and the “Mean seconds on treated side ± SEM” value [3, 9] was 31.7 ± 5.2 c seconds.
For `CC1=CC[C@@]23[C@@H]([C@@H]12)[C@H](C(C)C)CC[C@H]3C` [α-Cubebene, alpha-cubebene], the “Mean Treated” value ([3]; amount used 0.1% solution) was 118 s, the “Mean Untreated” value ([3]; amount used 0.1% solution) was 182 s and the “% repellency” value ([3]; amount used 0.1% solution) was 21%. The “Mean Treated” value ([3]; amount used 0.5% solution) was 99.4 s, the “Mean Untreated” value ([3]; amount used 0.5% solution) was 211 s and the “% repellency” value ([3]; amount used 0.5% solution) was 36%.
In the case of `CCCCCCOC(=O)CCCCC` [Hexyl hexanoate], the “Mean Treated” value ([3]; amount used 1% solution) is reported as 142 s, the “Mean Untreated” value ([3]; amount used 1% solution) is reported as 158 s and the “% repellency” value ([3]; amount used 1% solution) is reported as 5.2%.
`CC1=COC(=O)[C@H]2[C@@H]1CC[C@@H]2C` [Z,E-Nepetalactone, cis-trans nepetalactone] was tested, and the “Percentage Repellency ± SEM” value ([1]; application rate 16 μg/cm^2) was 16.1 ± 7.4a %, the “Percentage Repellency ± SEM” value ([1]; application rate 80 μg/cm^2) was 15.4 ± 6.9a % and the “Percentage Repellency ± SEM” value ([1]; application rate 160 μg/cm^2) was 56.8 ± 7.8b %. For the same compound, the “Percentage Repellency ± SEM” value ([1]; application rate 800 μg/cm^2) was 68.2 ± 5.7b %, the “Mean seconds on treated side ± SEM” value ([2]; 160 μg/cm^2) was 121 ± 10.6 s and the “Mean seconds on untreated side” value ([2]; 160 μg/cm^2) was 180 ± 10.5 s. For the same compound, the “Mean Treated” value [3, 6] was 127 s, the “Mean Untreated” value [3, 6] was 176 s and the “Mean Treated” value [3, 7] was 128 s. The “Mean Untreated” value [3, 7] was 174 s, the “Mean Treated” value [3, 10] was 65.4 s and the “Mean Untreated” value [3, 10] was 236 s. For the same compound, the “times less time on the treated side as compared with the untreated side” value ([3]; 5%) was ~5 times, the “Mean Treated” value [3, 11] was 47.3 s and the “Mean Untreated” value [3, 11] was 252 s. The “Mean seconds on treated side ± SEM” value ([3]; Non-antennectomized male cockroaches, 160 μg/cm^2) was 65.4 ± 11.8 s, the “% repellency” value ([3]; dose 16 μg/cm^2) was 16% and the “Mean seconds on treated side ± SEM” value [3, 8] was 127 ± 11.2 a seconds. For the same compound, the “% repellency” value ([3]; dose 80 μg/cm^2) was 15%, the “Mean seconds on treated side ± SEM” value [3, 9] was 128 ± 10.4 a seconds and the “% repellency” value ([3]; dose 160 μg/cm^2) was 57%. For the same compound, the “Mean seconds on treated side ± SEM” value ([3]; dose 160 μg/cm^2, male B. germanica, in 300 seconds) was 65.4 ± 11.8 b seconds, the “% repellency” value ([3]; dose 800 μg/cm^2) was 68% and the “Mean seconds on treated side ± SEM” value ([3]; dose 800 μg/cm^2, male B. germanica, in 300 seconds) was 47.3 ± 8.7 b seconds. For the same compound, the “Percentage Repellency” value ([4]; application rate 80 μg/cm^2) was 87.3%, the “Percentage Repellency” value ([4]; application rate 160 μg/cm^2) was 69.3% and the “Percentage Repellency” value ([4]; application rate 800 μg/cm^2) was 96.0%.
`CC(C)=CCc1c2c(c3occ(-c4ccc(O)c(O)c4)c(=O)c3c1O)C=CC(C)(C)O2` [Pomiferin, pomiferin] was tested, and the “Mean Treated” value ([3]; amount used 1% solution) was 138 s, the “Mean Untreated” value ([3]; amount used 1% solution) was 163 s and the “% repellency” value ([3]; amount used 1% solution) was 8.3%.
In the case of `CC(C)=CCc1c2c(c3occ(-c4ccc(O)cc4)c(=O)c3c1O)C=CC(C)(C)O2` [Osajin, osajin], the “Mean Treated” value ([3]; amount used 0.5% solution) is reported as 117 s, the “Mean Untreated” value ([3]; amount used 0.5% solution) is reported as 184 s and the “% repellency” value ([3]; amount used 0.5% solution) is reported as 22%. For the same compound, the “Mean Treated” value ([3]; amount used 1% solution) was 103 s, the “Mean Untreated” value ([3]; amount used 1% solution) was 197 s and the “% repellency” value ([3]; amount used 1% solution) was 31%.
With `c1ccc2ccccc2c1` [Naphthalene, reference compound] the “Mean Treated” value ([3]; amount used 1% solution) was 117 s, the “Mean Untreated” value ([3]; amount used 1% solution) was 184 s and the “% repellency” value ([3]; amount used 1% solution) was 22%.
In the case of `CC(C)=CCCC(C)CC=O` (stereo not drawn) [Citronellal, citronellal, reference compound], the “Average Percentage Repellency Over Time” value ([5]; 60 min) is reported as 10%, the “Average Percentage Repellency Over Time” value ([5]; 120 min) is reported as 19% and the “Average Percentage Repellency Over Time” value ([5]; 360 min) is reported as 1%. For the same compound, the “Average Percentage Repellency Over Time” value ([5]; Initial) was 79%.
